Test results: ChEMBL document CHEMBL4837240 (J Med Chem, 2021)
Active and inactive are the calls of the source. The calls are words filed in the database; no cut-off is given here.

How the values were obtained:
HDLEC [1] = assay: Antimigratory activity against VEGF-C-induced human dermal lymphatic endothelial cells assessed as cell migration at 100 nM incubated for 12 hrs by inverted microscopy based by transwell assay; format: functional, tissue-based
Danio rerio = organism: Danio rerio; assay: Antiangiogenesis activity against transgenic zebrafish with GFP-labeled vascular endothelial cells assessed as inhibition of subintestinal vessels at 10 uM incubated for 24 hrs by fluorescence microscopy; format: functional, organism-based
[2] = Bioavailability in Sprague-Dawley rat at 1 mg/kg, iv by LC-MS analysis; format: ADME, organism-based; settings: in vivo
[3] = molecular target: T1, Vascular endothelial growth factor receptor 1 (Mus musculus) (UniProt P35969); assay: In vivo inhibition of VEGFR1 phosphorylation in BALB/c mouse xenografted with MDA-MB-231 cells at 25 mg/kg, po by immunohistochemistry analysis; format: functional, organism-based
T1 sequence (whole entry): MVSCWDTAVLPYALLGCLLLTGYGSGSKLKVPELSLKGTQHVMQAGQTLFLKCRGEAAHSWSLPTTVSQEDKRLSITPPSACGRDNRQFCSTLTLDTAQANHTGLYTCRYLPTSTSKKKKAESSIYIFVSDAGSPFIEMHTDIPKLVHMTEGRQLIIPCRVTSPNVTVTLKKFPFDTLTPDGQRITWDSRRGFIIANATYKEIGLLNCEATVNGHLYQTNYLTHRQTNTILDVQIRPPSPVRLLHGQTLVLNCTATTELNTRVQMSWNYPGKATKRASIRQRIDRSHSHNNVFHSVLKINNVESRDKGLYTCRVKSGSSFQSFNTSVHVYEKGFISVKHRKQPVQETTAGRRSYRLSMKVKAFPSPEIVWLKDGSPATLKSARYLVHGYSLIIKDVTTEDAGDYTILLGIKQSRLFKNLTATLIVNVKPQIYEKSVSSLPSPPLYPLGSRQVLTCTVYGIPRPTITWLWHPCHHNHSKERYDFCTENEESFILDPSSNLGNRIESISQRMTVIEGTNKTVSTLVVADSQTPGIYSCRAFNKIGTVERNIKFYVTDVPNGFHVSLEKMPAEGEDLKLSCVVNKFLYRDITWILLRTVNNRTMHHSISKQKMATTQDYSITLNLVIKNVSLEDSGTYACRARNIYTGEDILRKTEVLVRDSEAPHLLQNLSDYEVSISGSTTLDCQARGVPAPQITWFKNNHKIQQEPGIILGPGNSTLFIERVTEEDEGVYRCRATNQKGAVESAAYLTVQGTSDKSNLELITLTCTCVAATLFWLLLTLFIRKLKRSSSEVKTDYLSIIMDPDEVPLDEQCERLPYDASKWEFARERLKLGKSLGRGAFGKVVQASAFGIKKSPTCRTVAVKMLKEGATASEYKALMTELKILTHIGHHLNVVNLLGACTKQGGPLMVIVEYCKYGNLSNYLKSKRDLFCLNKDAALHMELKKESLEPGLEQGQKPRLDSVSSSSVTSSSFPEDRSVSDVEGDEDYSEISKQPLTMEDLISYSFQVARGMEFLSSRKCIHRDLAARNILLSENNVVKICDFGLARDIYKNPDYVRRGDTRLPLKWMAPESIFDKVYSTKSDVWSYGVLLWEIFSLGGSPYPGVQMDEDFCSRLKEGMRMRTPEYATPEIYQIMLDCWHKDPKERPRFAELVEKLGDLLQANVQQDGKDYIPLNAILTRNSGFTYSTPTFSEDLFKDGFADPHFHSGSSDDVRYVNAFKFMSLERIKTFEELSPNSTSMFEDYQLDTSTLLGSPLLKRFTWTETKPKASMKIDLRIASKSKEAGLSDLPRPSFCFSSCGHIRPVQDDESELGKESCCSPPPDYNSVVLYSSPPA

[4] = AUC (0 to t) in Sprague-Dawley rat at 1 mg/kg, iv by LC-MS analysis; format: ADME, organism-based; set-up: dose 1 mg/kg; settings: in vivo
[5] = molecular target: Vascular endothelial growth factor receptor 3 (Mus musculus) (UniProt P35917); assay: In vivo inhibition of VEGFR3 phosphorylation in BALB/c mouse xenografted with MDA-MB-231 cells assessed as decrease in STAT5 phosphorylation at 25 mg/kg, po by immunohistochemistry analysis; format: functional, organism-based
Sequence of Vascular endothelial growth factor receptor 3 (Mus musculus) (P35917 whole entry): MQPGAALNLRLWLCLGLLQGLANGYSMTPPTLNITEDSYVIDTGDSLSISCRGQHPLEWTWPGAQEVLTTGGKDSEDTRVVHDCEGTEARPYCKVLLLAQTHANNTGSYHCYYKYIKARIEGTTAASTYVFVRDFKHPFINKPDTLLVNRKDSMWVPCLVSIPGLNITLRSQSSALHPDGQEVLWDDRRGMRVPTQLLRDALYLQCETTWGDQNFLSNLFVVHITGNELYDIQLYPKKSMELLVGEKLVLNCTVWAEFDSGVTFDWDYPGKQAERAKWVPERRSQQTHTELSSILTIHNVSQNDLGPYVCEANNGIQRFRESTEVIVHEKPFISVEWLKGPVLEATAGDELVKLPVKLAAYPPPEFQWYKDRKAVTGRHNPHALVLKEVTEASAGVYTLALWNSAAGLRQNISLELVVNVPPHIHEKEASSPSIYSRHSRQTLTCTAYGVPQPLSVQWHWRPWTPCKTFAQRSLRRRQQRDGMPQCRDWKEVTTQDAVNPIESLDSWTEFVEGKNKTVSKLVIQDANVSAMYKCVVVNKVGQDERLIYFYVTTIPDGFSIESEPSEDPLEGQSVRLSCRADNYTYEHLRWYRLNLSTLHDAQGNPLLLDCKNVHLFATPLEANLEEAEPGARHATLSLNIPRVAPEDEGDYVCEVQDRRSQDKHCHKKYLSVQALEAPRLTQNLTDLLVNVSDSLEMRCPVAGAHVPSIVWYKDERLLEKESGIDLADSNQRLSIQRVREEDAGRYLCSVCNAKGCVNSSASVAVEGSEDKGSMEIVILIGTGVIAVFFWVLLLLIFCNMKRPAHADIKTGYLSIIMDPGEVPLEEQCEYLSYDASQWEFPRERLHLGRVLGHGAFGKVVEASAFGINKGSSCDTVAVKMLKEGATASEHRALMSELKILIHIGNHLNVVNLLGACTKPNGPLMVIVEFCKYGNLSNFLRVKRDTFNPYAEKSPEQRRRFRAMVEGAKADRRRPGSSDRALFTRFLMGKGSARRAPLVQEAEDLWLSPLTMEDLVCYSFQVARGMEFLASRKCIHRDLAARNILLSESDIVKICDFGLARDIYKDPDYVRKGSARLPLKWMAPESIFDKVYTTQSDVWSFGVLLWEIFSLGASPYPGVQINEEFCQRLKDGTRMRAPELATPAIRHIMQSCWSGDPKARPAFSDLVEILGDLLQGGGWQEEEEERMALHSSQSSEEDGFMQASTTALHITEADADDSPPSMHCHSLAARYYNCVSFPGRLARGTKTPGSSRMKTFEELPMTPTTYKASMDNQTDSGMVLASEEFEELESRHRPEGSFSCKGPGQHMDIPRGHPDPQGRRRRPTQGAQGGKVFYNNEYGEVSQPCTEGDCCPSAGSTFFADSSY

[6] = molecular target: T2, Vascular endothelial growth factor receptor 3 (Homo sapiens, UniProt P35916); assay: Inhibition of VEGFR3 in human MDA-MB-436 cells assessed as inhibition of ERK1/2 phosphorylation at 2.5 uM incubated for 24 hrs by Western blot analysis; format: cell-based
T2 sequence (P35916 whole entry): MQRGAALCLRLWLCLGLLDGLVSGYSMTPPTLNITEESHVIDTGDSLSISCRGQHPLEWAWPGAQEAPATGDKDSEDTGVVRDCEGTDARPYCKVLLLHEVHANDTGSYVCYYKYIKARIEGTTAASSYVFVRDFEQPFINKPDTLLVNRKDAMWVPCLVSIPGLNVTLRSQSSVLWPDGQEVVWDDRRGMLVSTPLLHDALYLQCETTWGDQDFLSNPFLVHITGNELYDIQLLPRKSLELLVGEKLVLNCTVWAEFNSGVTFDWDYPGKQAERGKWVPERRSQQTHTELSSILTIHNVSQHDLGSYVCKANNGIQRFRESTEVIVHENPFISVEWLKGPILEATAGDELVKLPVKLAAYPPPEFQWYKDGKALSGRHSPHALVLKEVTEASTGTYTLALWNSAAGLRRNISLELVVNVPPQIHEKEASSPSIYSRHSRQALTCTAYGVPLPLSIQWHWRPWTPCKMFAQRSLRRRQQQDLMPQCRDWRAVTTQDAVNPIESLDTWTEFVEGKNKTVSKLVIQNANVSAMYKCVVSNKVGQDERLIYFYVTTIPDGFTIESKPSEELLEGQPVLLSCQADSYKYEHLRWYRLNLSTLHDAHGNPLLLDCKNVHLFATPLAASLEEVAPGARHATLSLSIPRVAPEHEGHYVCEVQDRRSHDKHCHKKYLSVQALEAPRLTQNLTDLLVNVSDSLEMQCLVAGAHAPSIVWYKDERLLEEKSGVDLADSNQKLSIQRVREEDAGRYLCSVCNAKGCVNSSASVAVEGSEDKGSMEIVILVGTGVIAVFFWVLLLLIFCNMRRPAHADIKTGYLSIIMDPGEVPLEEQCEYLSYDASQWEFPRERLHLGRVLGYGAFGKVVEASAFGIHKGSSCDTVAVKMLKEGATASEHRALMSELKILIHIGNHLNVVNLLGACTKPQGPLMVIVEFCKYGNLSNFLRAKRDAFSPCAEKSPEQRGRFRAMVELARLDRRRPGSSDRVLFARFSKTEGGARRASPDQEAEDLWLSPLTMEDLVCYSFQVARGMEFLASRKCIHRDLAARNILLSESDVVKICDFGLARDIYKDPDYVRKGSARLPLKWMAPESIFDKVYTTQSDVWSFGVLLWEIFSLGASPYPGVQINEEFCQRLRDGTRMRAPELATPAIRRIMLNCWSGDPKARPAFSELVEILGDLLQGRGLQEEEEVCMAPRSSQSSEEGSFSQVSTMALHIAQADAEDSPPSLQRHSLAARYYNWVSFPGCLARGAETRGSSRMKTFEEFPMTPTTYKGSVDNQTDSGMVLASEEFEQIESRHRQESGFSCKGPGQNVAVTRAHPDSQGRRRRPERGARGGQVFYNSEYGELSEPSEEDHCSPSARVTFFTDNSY

MDA-MB-436 [7] = assay: Induction of apoptosis in human MDA-MB-436 cells assessed as increase in apoptotic cells incubated for 24 hrs by Hoechst 33258 staining under a fluorescence microscopy; format: functional, cell-based
MDA-MB-231 [8] = assay: Inhibition of colony formation in human MDA-MB-231 cells at 2.5 uM incubated for 24 hrs by clonogenic assay; format: functional
[9] = Apparent volume of distribution in Sprague-Dawley rat at 1 mg/kg, iv by LC-MS analysis; format: ADME, organism-based; settings: in vivo, read-out: Vz
[10] = molecular target: T2, Vascular endothelial growth factor receptor 3; assay: Inhibition of VEGFR3 phosphorylation in human dermal lymphatic endothelial cells incubated for 24 hrs by Western blot analysis; format: tissue-based; settings: HDLEC
MDA-MB-436 [11] = assay: Antimigratory activity against human MDA-MB-436 cells assessed as suppression of migration measured after 24 hrs by Wound healing assay; format: functional, cell-based
[12] = molecular target: Vascular endothelial growth factor receptor 1 (Homo sapiens, UniProt P17948); assay: Inhibition of human FLT1/VEGFR1 assessed as residual kinase activity at 1 uM relative to control
Sequence of Vascular endothelial growth factor receptor 1 (P17948 whole entry): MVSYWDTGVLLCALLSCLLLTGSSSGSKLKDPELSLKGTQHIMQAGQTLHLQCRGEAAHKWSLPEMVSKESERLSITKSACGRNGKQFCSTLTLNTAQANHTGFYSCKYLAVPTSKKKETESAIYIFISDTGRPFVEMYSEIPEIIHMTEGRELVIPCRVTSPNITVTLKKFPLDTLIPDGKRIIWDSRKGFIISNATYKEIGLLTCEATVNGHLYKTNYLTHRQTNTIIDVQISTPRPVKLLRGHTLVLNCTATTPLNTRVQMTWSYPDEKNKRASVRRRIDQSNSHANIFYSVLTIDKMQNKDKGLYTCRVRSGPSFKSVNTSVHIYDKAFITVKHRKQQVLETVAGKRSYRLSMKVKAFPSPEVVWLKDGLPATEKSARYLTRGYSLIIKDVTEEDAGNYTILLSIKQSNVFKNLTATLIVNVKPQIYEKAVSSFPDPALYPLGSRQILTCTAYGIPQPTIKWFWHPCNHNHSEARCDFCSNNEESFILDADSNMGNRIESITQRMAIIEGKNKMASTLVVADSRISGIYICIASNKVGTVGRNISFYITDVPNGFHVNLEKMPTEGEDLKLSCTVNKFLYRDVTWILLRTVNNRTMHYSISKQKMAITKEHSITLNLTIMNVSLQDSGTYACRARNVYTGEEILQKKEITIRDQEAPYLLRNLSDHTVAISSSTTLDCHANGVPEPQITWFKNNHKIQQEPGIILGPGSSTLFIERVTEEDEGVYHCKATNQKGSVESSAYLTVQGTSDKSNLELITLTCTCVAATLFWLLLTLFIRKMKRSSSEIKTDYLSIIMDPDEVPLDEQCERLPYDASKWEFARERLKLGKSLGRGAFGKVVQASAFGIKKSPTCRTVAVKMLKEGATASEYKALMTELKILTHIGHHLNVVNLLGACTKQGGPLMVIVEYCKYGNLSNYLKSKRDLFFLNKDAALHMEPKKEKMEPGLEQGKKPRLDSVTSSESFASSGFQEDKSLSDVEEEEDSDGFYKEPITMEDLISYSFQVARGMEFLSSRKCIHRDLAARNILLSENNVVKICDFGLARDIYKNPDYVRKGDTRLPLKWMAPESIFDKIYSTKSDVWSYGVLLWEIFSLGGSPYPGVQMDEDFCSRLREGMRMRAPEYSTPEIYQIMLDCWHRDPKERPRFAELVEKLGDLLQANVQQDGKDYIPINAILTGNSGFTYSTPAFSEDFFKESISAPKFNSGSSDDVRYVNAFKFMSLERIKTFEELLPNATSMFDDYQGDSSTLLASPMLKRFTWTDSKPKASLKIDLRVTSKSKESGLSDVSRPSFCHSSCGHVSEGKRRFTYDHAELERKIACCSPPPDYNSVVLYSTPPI

Mus musculus [13] = assay: Decrease in Ki-67 level in BALB/c mouse xenografted with MDA-MB-231 cells in tumor tissue at 25 mg/kg, po by immunohistochemistry analysis; format: functional, organism-based
[14] = Toxicity in BALB/c mouse xenografted with MDA-MB-231 cells assessed as change in liver at 300 mg/kg, po by hematoxylin and eosin staining based analysis; format: organism-based; settings: in vivo
[15] = Cmax in Sprague-Dawley rat at 10 mg/kg, po by LC-MS analysis; format: ADME, organism-based; set-up: route oral, dose 10 mg/kg; settings: in vivo
[16] = Toxicity in BALB/c mouse xenografted with MDA-MB-231 cells assessed as change in spleen at 300 mg/kg, po by hematoxylin and eosin staining based analysis; format: organism-based; settings: in vivo
Mus musculus [17] = assay: Decrease in E-cadherin level in BALB/c mouse xenografted with MDA-MB-231 cells in tumor tissue at 25 mg/kg, po by immunohistochemistry analysis; format: functional, organism-based
MDA-MB-231 [18] = assay: Downregulation of MMP2 protein expression in human MDA-MB-231 cells up to 10 uM incubated for 24 hrs by Western blot analysis; format: functional, cell-based; settings: dose microM <=10, time 24.0 hrs
[19] = AUC (0 to t) in Sprague-Dawley rat at 10 mg/kg, po by LC-MS analysis; format: ADME, organism-based; set-up: dose 10 mg/kg; settings: in vivo
HDLEC [20] = assay: Inhibition of cell migration in VEGF-C-induced human dermal lymphatic endothelial cells assessed as cell migration at 100 nM incubated for 24 hrs by inverted microscopy based by scratch wound healing assay; format: functional, tissue-based
MDA-MB-231 [21] = assay: Anticancer activity against human MDA-MB-231 cells assessed as cell viability incubated for 48 hrs by MTT assay; settings: MDA-MB-231, 48 h
[22] = Half life in Sprague-Dawley rat at 10 mg/kg, po by LC-MS analysis; format: ADME, organism-based; settings: in vivo

For CN1CCN(c2ccc(-c3cc4c(N5CCN(C(=O)Nc6ccc(Cl)c(C(F)(F)F)c6)CC5)ncnc4s3)cc2)CC1, the Activity (HDLEC [1]) was “Active”, the inhibition (Danio rerio) was “Active” and the bioavailability [2] was 30.9%. For the same compound, the Activity [3] was “inactive”, the AUC(0-t) [4] was 2570 ng·h/mL and the Activity [5] was “Active”. The inhibition [6] was “Active”, the Activity (MDA-MB-436 [7]) was “Dose-Dependent Effect” and the inhibition at 2.5 µM (MDA-MB-231 [8]) was 100%. For the same compound, the Vd [9] was 5.4 L/kg, the inhibition [10] was “Dose-Dependent Effect” and the Activity (MDA-MB-436 [11]) was “Active”. The Activity [12] was 97%, the Activity (Mus musculus [13]) was “Active” and the Activity [14] was “Non-Toxic”. For the same compound, the Cmax [15] was 420 ng/mL, the Activity [16] was “Non-Toxic” and the Activity (Mus musculus [17]) was “Active”. The Activity (MDA-MB-231 [18]) was “Active”, the AUC(0-t) [19] was 9220 ng·h/mL and the Activity (HDLEC [20]) was “Active”. For the same compound, the IC50 (MDA-MB-231 [21]) was 2.22 µM and the half-life [22] was 16 h.
